Assay results reported in patent publication US20030153081A1, “Viral core protein-cationic lipid-nucleic acid-delivery complexes” (priority 1999, published 2003).

Legend:
differentiated ND7 cells = assay: X-gal histochemistry, transfection of differentiated ND7 cells; type: cell-based, rat/mouse
Protocol: ND7 cells were plated in a 24 well culture plate at a density of 4×10^4 cells per well in normal growth media (+serum). Twenty-four hours later the media was replaced with differentiation media and the cells were grown for an additional 24 hrs. Three different differentiation medias were used; serum-free (−serum), normal growth media plus 1 mM cAMP (cAMP), or reduced serum (0.5%) plus 1 mM cAMP and 50 ng/ml nerve growth factor (NGF). The cells were then transfected with pCMVb complexed with either DC-Chol/DOPE alone or Mu1 plus DC-Chol/DOPE. Forty-eight hours later the cells were fixed and processed for X-Gal histochemistry and the percentage of positive cells determined.
Differentiation of ND7 cells was carried out using three previously described methods ^28, 29. ND7 cells were seeded in NGM at a density of 4×10^4 cells per well in a 24 well culture dish (Nunc). Twenty four hours later the media was replaced with either: a) NGM supplemented with 1 mM adenosine 3′:5′-cyclic monophosphate (cAMP; Sigma), or b) serum-free differentiation media (50% Hams F12, 50% DMEM, 5 μg/mL Transterrin, 250 ng/mL Insulin, 0.3 μM sodium selenite), or c) low serum nerve growth factor (NGF) media (L-15 supplemented with 2 mM glutamine, 4 g/L glucose, 4 g/L sodium bicarbonate, 10 u/mL penicillin, […] streptomycin, 0.5% FCS, 1 mM cAMP, 50 ng/mL NGF (Alomone Labs)). Differentiated ND7 cells were grown in appropriate media for 24 hrs at 37° C., 5% CO2 prior to transfection.
We also examined the ability of Mu1 to improved cationic liposome-mediated transfection in differentiated ND7s. The ND7 cell line is derived from a fusion of primary rat dorsal root ganglia (DRG) neurons and the mouse neuroblastoma N18Tg2 ^28. ND7 cells can be differentiated in a variety of manners including the withdrawal of serum, cAMP administration or exposure to reduced serum plus cAMP and nerve growth factor. Differentiation of ND7s leads to the expression of cellular properties associated with their parental nociceptive sensory neurons including a reduction in cell division and the onset of neurite outgrowth. ND7 cells were seeded in 24 well culture plates and 24 hours later differentiated. Fifteen to 20 hours following the onset of differentiation, they were transfected as above. Fifteen to 20 hours following transfection, cells were fixed and processed for X-gal histochemistry. Consistent with previous observations, transfection efficiencies varied greatly between the three differentiated groups. […] In all three conditions, however, inclusion of Mu1 polypeptide in the transfection complex improved the transduction of differentiated ND7 cells. […] The greatest improvement in efficiencies was seen, however, in the group differentiated by serum withdrawal. Here, increases of greater than 10 fold were observed.

ND7 cells = assay: X-gal histochemistry cell counts, undifferentiated ND7 cells; type: cell-based, rat/mouse
Protocol: ND7 neurons were plated in 24 well culture dishes at a density of 4×10^4 cells/well and allowed to grow for 24 hrs. The undifferentiated ND7 neurons were then transfected with either pCMVb alone (A), pCMVb complexed with DC-Chol/DOPE (1/3, w/w) (B) or with pCMVb complexed with Mu1 and DC-Chol/DOPE (1/12/6) (C). Forty-eight hours later the cells were fixed and processed for histochemical detection of X-Gal.
DNA and liposomes were combined by the addition of 400 μL serum-free differentiation media and gentle shaking. The DNA: liposome mixture was incubated at room temperature for 20 to 30 minutes before being applied to the cells. The DNA/liposome mixture was then applied to the cells and incubated at 37° C., 5% CO2 for 2 hours after which this media was replaced with complete media Twenty four to 48 hours later the cells were fixed and processed for X-gal histochemistry as described ^31 or harvested for β-galactosidase enzyme assays (Promega Corp.).
Cell counts were performed under ×40 magnification using a Nikon Diaphot inverted microscope. Each transfection was repeated at least three times and at least three separate counts were made for each well.
The β-galactosidase reporter gene assay provides a measure of the overall level of β-galactosidase produced, but gives no information regarding the number of cells transfected. For this reason, we also performed cell counts on transfected ND7 cells. Cells were seeded at a density of 4×10^4 in 24 well culture plates. After 24 hours the cells were washed briefly in serum-free media and transfected with pCMVβ complexed to DC-Chol/DOPE and Mu1 peptide. The ratios used were those found to be optimal in the reporter gene assay, 1:12:6, pCMVβ:Mu1:DC-Chol/DOPE. Using these ratios, we found a 6-fold increase in the number of β galactosidase positive cells (FIGS. 3 & 6).

H-MRRAHHRRRRASHRRMRGG-OH [Mu1]
number of positive cells (FIG. 6) (differentiated ND7 cells; all three differentiation media, Mu1 plus DC-Chol/DOPE vs DC-Chol/DOPE alone): increased the number of positive cells
increased efficiency by inclusion of Mu1 (differentiated ND7 cells; differentiated by cAMP alone): greater than 6 fold
increased efficiency by inclusion of Mu1 (differentiated ND7 cells; differentiated by serum withdrawal): greater than 10 fold
increased efficiency by inclusion of Mu1 (differentiated ND7 cells; low serum/cAMP/NGF): greater than 6 fold
number of X-Gal positive cells (FIG. 3) (ND7 cells; 1/12/6 vs pCMVβ with DC-Chol/DOPE 1/3, 48 h): significantly enhanced the number of X-Gal positive cells
increase in the number of β galactosidase positive cells (ND7 cells; 1:12:6 pCMVβ:Mu1:DC-Chol/DOPE): 6 fold
cell loss (ND7 cells; Mu1 complex, any of the concentrations utilized): No obvious cell loss
